Test results as given in publication PMC11267536, “Gonococcal Mimitope Vaccine Candidate Forms a Beta-Hairpin Turn and Binds Hydrophobically to a Therapeutic Monoclonal Antibody” (JACS Au, 2024).
Where “and” joins values, the source holds several entries; their conditions need not be identical. Equal entries are not always repeated. Bridges are numbered along the chain shown (N, C = ends).

How the values were obtained:
mAb 2C7 [1] = experiment: Isothermal titration calorimetry (ITC); assay type: binding, Human-mouse chimeric; conditions: 20 °C
Experimental: Isothermal titration calorimetry (ITC) experiments were carried out at 20 °C by using a MicroCal PEAQ-ITC instrument. mAb and peptide CP2 were both dialyzed against PBS pH 7.4 to avoid buffer mismatch between solutions. A solution of mAb with a concentration of 30 μM was loaded into the cell, and for each measurement, CP2 was added to the antibody solution through a microsyringe under a stirrer speed of 750 rpm. The titration was performed by adding 2 μL from a 1.67 mM CP2 solution for 19 injections using a time duration of 150 s. The data were analyzed and fitted by using the one-binding site model. The standard thermodynamic parameters of equilibrium were calculated by the following equation[45]: [drawing 2] 2 where ΔG is the Gibb’s free energy, Ka is the equilibrium constant, R is the gas constant, T is the temperature in kelvin, ΔH is the enthalpy change, and ΔS is the entropy change.

gonococci = conditions: ref previous studies, cited from earlier work
Source text: The spread of multidrug-resistant strains of Neisseria gonorrhoeae, the etiologic agent of gonorrhea, represents a global health emergency. Therefore, the development of a safe and effective vaccine against gonorrhea is urgently needed. […] Furthermore, we identified a peptide, cyclic peptide 2 (CP2) that mimicked the 2C7 LOS epitope, elic ... || Neisseria gonorrhoeae is a leading cause of sexually transmitted infections, which include urethritis, cervicitis, pharyngitis, locally invasive (epididymitis and salpingo-oophritis) and disseminated infections, and in rare cases, meningitis and endocarditis.[1] Infections in women are frequently asymptomatic, which augments the spread of bacteria among populations. Further, strains have emerged that are resistant to multiple antibiotics, which have the potential to lead to untreatable infections. […] Therefore, a random peptide display library was used to identify a peptide, designated as PEP1, which bound mAb 2C7. […] Subsequently, PEP1 was covalently cyclized to yield CP2 and configured as a tetramer (designated tetra-MAP CP2 or TMCP2). TMCP2 adjuvanted wit ...

mAb 2C7 [2] = experiment: STD NMR titration of CP2 into mAb 2C7; assay type: binding, Human-mouse chimeric; conditions: STD-AF of methyl signals, one-site Langmuir model, saturation time 2 s, CP2 0.17-1.70 mM, 50 mM phosphate pH 7.4, H2O:D2O 90:10, 288 and 298 K, read-out: apparent equilibrium dissociation constant (KD)
Experimental: Chimeric mAb 2C7 and the sequence for the VH and VL regions of murine mAb 2C7 have been described previously.[18] Human-mouse chimeric mAb 2C7 was expressed in ExpiCHO cells and purified by affinity chromatography of tissue culture supernatants using Protein A/G agarose. Chimeric Fab 2C7 was expressed in CHO cells and purified by affinity chromatography with an anti-CH1 antibody (LakePharma).
(§1) NMR spectra were recorded on a Bruker AVANCE NEO 600-MHz equipped with a cryo probe, and data acquisition and processing were performed with TOPSPIN 4.1.1 software. Samples were prepared in H2O:D2O (90:10) buffered with 50 mM phosphate at pH 7.4, using 3 mm NMR tubes. NMR spectra were acquired using antibody concentrations of 10–20 μM, a peptide concentration of 1 mM, and an antibody:peptide ratio from 1:18 to 1:50, depending on the NMR experiments, and temperatures of 288 and 298 K; 0.05 mM amount of deuterated trimethylsilylpropanoic acid (TSP) was used as an internal standard.
STD NMR experiments were acquired with 32,000 data points and zero-filled up to 64,000 data points prior to processing. The protein resonances were selectively irradiated using 40 Gauss pulses with a length of 50 ms, setting the off-resonance pulse frequency at 40 ppm and the on-resonance pulse at 5.5 ppm. An excitation sculpting with gradient pulses (esgp) was applied for the suppression of water signals. […]

gonococcal colonization = conditions: cited from earlier work
Source text: The spread of multidrug-resistant strains of Neisseria gonorrhoeae, the etiologic agent of gonorrhea, represents a global health emergency. Therefore, the development of a safe and effective vaccine against gonorrhea is urgently needed. […] Furthermore, we identified a peptide, cyclic peptide 2 (CP2) that mimicked the 2C7 LOS epitope, elic ... || Neisseria gonorrhoeae is a leading cause of sexually transmitted infections, which include urethritis, cervicitis, pharyngitis, locally invasive (epididymitis and salpingo-oophritis) and disseminated infections, and in rare cases, meningitis and endocarditis.[1] Infections in women are frequently asymptomatic, which augments the spread of bacteria among populations. Further, strains have emerged that are resistant to multiple antibiotics, which have the potential to lead to untreatable infections. Thus, the development of vaccines and novel therapeutics, including nonantibiotic approaches, is ... || Gonococcal lipooligosaccharide (LOS) is the most abundant component of the outer membrane. Antibodies against LOS can elicit complement-dependent bacterial killing, and therefore, LOS has been pursued as a vaccine candidate (reviewed in ref ([12])). A murine anti-LOS monoclonal antibody (mAb) 2C7 was isolated almost four decades ago.[13],[14] […]

mAb 2C7 [3] = experiment: WaterLOGSY, CPMG and 1D NH chemical shift perturbation NMR; assay type: binding, Human-mouse chimeric
Experimental: as §1
The waterLOGSY experiments were performed on CP2 in the absence and presence of the mAb, using a conventional 1D NOE-ePHOGSY pulse sequence[36] provided in the Bruker library (ephogsygpno.2). The bulk water was selectively irradiated by 1D NOESY, and the solvent suppression was modified into a double pulsed-field gradient (DPFG) perfect-echo.[37] A mixing time of 2s was used in order to compare the WaterLOGSY experiment with the STD NMR experiment.
A mixture of 20 μM mAb2C7 and 1 mM CP2 peptide was prepared in deuterated phosphate saline buffer pH 7.4. Pseudo 2D experiments (cpmg_esgp2d) were used for detecting T2 spin–spin relaxation measurements. Data were analyzed by fitting the equation f(t) = Io × exp (−t/T) using Dynamics Center 2.7.1.

[4] = biological target: human-mouse chimeric mAb 2C7 (mouse | human | mouse VL, human constant region); experiment: ITC; 20 °C, PBS pH 7.4; 30 uM mAb in the cell, 1.67 mM CP2 in the syringe, 19 injections of 2 uL; one-site model
[5] = biological target: human-mouse chimeric mAb 2C7 (mouse | human | mouse VL, human constant region); experiment: NMR titration; STD NMR; CP2 (0.17 to 1.70 mM) titrated into a solution of mAb; 50 mM phosphate pH 7.4, H2O:D2O 90:10; saturation time 2 s; one-site Langmuir isotherm; apparent
gonococcal strains = conditions: cited from earlier work
Source text: Gonococcal lipooligosaccharide (LOS) is the most abundant component of the outer membrane. Antibodies against LOS can elicit complement-dependent bacterial killing, and therefore, LOS has been pursued as a vaccine candidate (reviewed in ref ([12])). A murine anti-LOS monoclonal antibody (mAb) 2C7 was isolated almost four decades ago.[13],[14] 2C7 recognizes an LOS epitope that comprises lactose from heptose (Hep) II; lactose from HepI or GlcNAc may also contribute to the 2C7 epitope (see Supporting Information, Scheme S1). This mAb reacted with 94% of 68 gonococcal strains examined in the cerv ...

Br-Ac-Gly-Pro-Ile-Pro-Val-Leu-Asp-Glu-Asn-Gly-Leu-Phe-Ala-Pro-Gly-Pro-Cys-Lys-OH (sidechain bridge or staple) [CP2]
ΔG (mAb 2C7 [1]; PBS pH 7.4): -26.1 kJ/mol
ΔG (exothermic process) (mAb 2C7 [1]; PBS pH 7.4): < 0
ΔH (mAb 2C7 [1]; PBS pH 7.4): -7.17 ± 0.296 kJ/mol and -7.17 kJ/mol
−TΔS (mAb 2C7 [1]; PBS pH 7.4): -18.9 kJ/mol
binding stoichiometry N (sites) (mAb 2C7 [1]; one-site binding model, PBS pH 7.4): 1.89 ±4.4e-2 and 1.89
Kd (mAb 2C7 [1]; one-site binding model, PBS pH 7.4, mAb 30 μM, 1.67 mM CP2, 19 injections of 2 μL): 23 µM
bactericidal antibodies (gonococci; mice): elicited bactericidal antibodies in mice
Kd (mAb 2C7 [2]): 61 µM
active protection (gonococcal colonization; mouse vaginal colonization model, ref previous studies): actively protected in a mouse vaginal colonization model
transverse relaxation time T2 (CPMG) (mAb 2C7 [3]; 20 μM mAb 2C7, 1 mM CP2, deuterated phosphate saline buffer pH 7.4): indicative of complex formation
WaterLOGSY binding (mAb 2C7 [3]; change in peak phase from free to bound state, mixing time 2 s): the change in the peak phase passing from the free to the bound state is indicative of binding
1D NH chemical shift perturbation (mAb 2C7 [3]; mixture of mAb 2C7 with CP2): a few chemical shift perturbations

GPIPVLDENGLFAPGPCK-OH (bridge N-17; not fully specified (N-terminus, bridges)) [cyclic peptide 2 (CP2)]
Kd [4]: 23 µM
dH [4]: -7.17 kJ/mol
stoichiometry N [4]: 1.89 CP2 per mAb
Kd [5]: 61 µM

B1: Murine mAb 2C7: murine anti-LOS monoclonal antibody 2C7 (antibody, V domains shown)
VH: EVQLQQSGPELVKPGSSVKISCKGSGYTFTDYNMEWVKQSHGKSLEWIGVINPNNRFTSYNQNFRGKATLTVDKSSSTAYMDLRSLTSEDSAVYFCAGSRWYQYDYWGQGTTLTVSS
VL: QVVVTQESALTTSPGETVTLTCRSSTGAVTTSNYANWVQEKPDHLFTGLIGGINNRAPGVPARFSGSLIADKAALTITGAQTEDEAIYFCALWYSNHWVFGGGTKLTVL
complement-dependent bactericidal activity (gonococci; against gonococci): elicits complement-dependent bactericidal activity against gonococci
duration and burden of gonococcal colonization (gonococcal colonization; mouse vaginal model): decreased the duration and burden of gonococcal colonization
gonococcal strains recognized (gonococcal strains; 68 gonococcal strains examined in the cervical secretions of women): 94%
clinical isolates recognized (gonococcal strains; 75 minimally passaged clinical isolates, Nanjing, China): 100%
